Experimental data from ChEMBL document CHEMBL2016493, “Design, synthesis, synergistic antimicrobial activity and cytotoxicity of 4-aryl substituted 3,4-dihydropyrimidinones of curcumin” (Bioorg Med Chem Lett, 2012).
Activity calls are given as the source filed them. The calls are words filed in the database; no cut-off is given here.

What was measured:
[1] = system: Escherichia coli; assay: Antibacterial activity against Escherichia coli ATCC 35218 at 160 uM/ml after 24 hrs by kirby-bauer method; assay type: functional; settings: for zone of inhibition at 160 µM: ATCC 35218, 24 h, read-out: IZ
[2] = system: Escherichia coli; assay: Antibacterial activity against Escherichia coli ATCC 35218 at 80 uM/ml after 24 hrs by kirby-bauer method; assay type: functional; settings: ATCC 35218, 24 h, read-out: IZ
[3] = system: Escherichia coli; assay: Antibacterial activity against Escherichia coli ATCC 35218 at 40 uM/ml after 24 hrs by kirby-bauer method; assay type: functional
[4] = system: Escherichia coli; assay: Antibacterial activity against Escherichia coli ATCC 35218 at 20 uM/ml after 24 hrs by kirby-bauer method; assay type: functional
[5] = system: Burkholderia pseudomallei; assay: Antibacterial activity against Burkholderia pseudomallei NTCC 10274 at 160 uM/ml after 24 hrs by kirby-bauer method; assay type: functional; settings: NTCC 10274, 24 h, read-out: IZ
[6] = system: Burkholderia pseudomallei; assay: Antibacterial activity against Burkholderia pseudomallei NTCC 10274 at 80 uM/ml after 24 hrs by kirby-bauer method; assay type: functional; settings: NTCC 10274, 24 h, read-out: IZ
[7] = system: Burkholderia pseudomallei; assay: Antibacterial activity against Burkholderia pseudomallei NTCC 10274 at 40 uM/ml after 24 hrs by kirby-bauer method; assay type: functional; settings: for zone of inhibition at 40 µM: NTCC 10274, 24 h, read-out: IZ
[8] = system: Burkholderia pseudomallei; assay: Antibacterial activity against Burkholderia pseudomallei NTCC 10274 at 20 uM/ml after 24 hrs by kirby-bauer method; assay type: functional
[9] = system: Pseudomonas aeruginosa; assay: Antibacterial activity against Pseudomonas aeruginosa ATCC 15499 at 160 uM/ml after 24 hrs by kirby-bauer method; assay type: functional; settings: for zone of inhibition at 160 µM: ATCC 15499, 24 h, read-out: IZ
[10] = system: Pseudomonas aeruginosa; assay: Antibacterial activity against Pseudomonas aeruginosa ATCC 15499 at 80 uM/ml after 24 hrs by kirby-bauer method; assay type: functional; settings: ATCC 15499, 24 h, read-out: IZ
[11] = system: Pseudomonas aeruginosa; assay: Antibacterial activity against Pseudomonas aeruginosa ATCC 15499 at 40 uM/ml after 24 hrs by kirby-bauer method; assay type: functional
[12] = system: Pseudomonas aeruginosa; assay: Antibacterial activity against Pseudomonas aeruginosa ATCC 15499 at 20 uM/ml after 24 hrs by kirby-bauer method; assay type: functional
[13] = system: Salmonella typhimurium; assay: Antibacterial activity against Salmonella typhimurium ATCC 23564 at 160 uM/ml after 24 hrs by kirby-bauer method; assay type: functional, Salmonella enterica subsp. enterica serovar Typhimurium; settings: Salmonella enterica, ATCC 23564, 24 h; read-out: IZ
[14] = system: Salmonella typhimurium; assay: Antibacterial activity against Salmonella typhimurium ATCC 23564 at 80 uM/ml after 24 hrs by kirby-bauer method; assay type: functional, Salmonella enterica subsp. enterica serovar Typhimurium; settings: for zone of inhibition at 80 µM: Salmonella enterica, ATCC 23564, 24 h, read-out: IZ
[15] = system: Salmonella typhimurium; assay: Antibacterial activity against Salmonella typhimurium ATCC 23564 at 40 uM/ml after 24 hrs by kirby-bauer method; assay type: functional; settings: for inhibition zone (IZ): Salmonella enterica subsp. enterica serovar Typhimurium
[16] = system: Salmonella typhimurium; assay: Antibacterial activity against Salmonella typhimurium ATCC 23564 at 20 uM/ml after 24 hrs by kirby-bauer method; assay type: functional; settings: for inhibition zone (IZ): Salmonella enterica subsp. enterica serovar Typhimurium
[17] = system: Staphylococcus aureus; assay: Antibacterial activity against Staphylococcus aureus ATCC 11632 at 160 uM/ml after 24 hrs by kirby-bauer method; assay type: functional; settings: ATCC 11632, 24 h, read-out: IZ
[18] = system: Staphylococcus aureus; assay: Antibacterial activity against Staphylococcus aureus ATCC 11632 at 80 uM/ml after 24 hrs by kirby-bauer method; assay type: functional; settings: ATCC 11632, 24 h, read-out: IZ
[19] = system: Staphylococcus aureus; assay: Antibacterial activity against Staphylococcus aureus ATCC 11632 at 40 uM/ml after 24 hrs by kirby-bauer method; assay type: functional; settings: for zone of inhibition at 40 µM: ATCC 11632, 24 h, read-out: IZ
[20] = system: Staphylococcus aureus; assay: Antibacterial activity against Staphylococcus aureus ATCC 11632 at 20 uM/ml after 24 hrs by kirby-bauer method; assay type: functional; settings: for zone of inhibition at 20 µM: ATCC 11632, 24 h, read-out: IZ
[21] = system: Aspergillus niger; assay: Antifungal activity against Aspergillus niger MTCC 1108 at 160 uM/ml after 48 hrs by paper disc diffusion method; assay type: functional; settings: MTCC 1108, 48 h, read-out: IZ
[22] = system: Aspergillus niger; assay: Antifungal activity against Aspergillus niger MTCC 1108 at 80 uM/ml after 48 hrs by paper disc diffusion method; assay type: functional; settings: for zone of inhibition at 80 µM: MTCC 1108, 48 h, read-out: IZ
[23] = system: Aspergillus niger; assay: Antifungal activity against Aspergillus niger MTCC 1108 at 40 uM/ml after 48 hrs by paper disc diffusion method; assay type: functional
[24] = system: Aspergillus niger; assay: Antifungal activity against Aspergillus niger MTCC 1108 at 20 uM/ml after 48 hrs by paper disc diffusion method; assay type: functional
[25] = system: Aspergillus flavus; assay: Antifungal activity against Aspergillus flavus MTCC 1021 at 160 uM/ml after 48 hrs by paper disc diffusion method; assay type: functional; settings: MTCC 1021, 48 h, read-out: IZ
[26] = system: Aspergillus flavus; assay: Antifungal activity against Aspergillus flavus MTCC 1021 at 80 uM/ml after 48 hrs by paper disc diffusion method; assay type: functional
[27] = system: Aspergillus flavus; assay: Antifungal activity against Aspergillus flavus MTCC 1021 at 40 uM/ml after 48 hrs by paper disc diffusion method; assay type: functional
[28] = system: Aspergillus flavus; assay: Antifungal activity against Aspergillus flavus MTCC 1021 at 20 uM/ml after 48 hrs by paper disc diffusion method; assay type: functional
[29] = system: Curvularia lunata; assay: Antifungal activity against Curvularia lunata MTCC 581 at 160 uM/ml after 48 hrs by paper disc diffusion method; assay type: functional; settings: MTCC 581, 48 h, read-out: IZ
[30] = system: Curvularia lunata; assay: Antifungal activity against Curvularia lunata MTCC 581 at 80 uM/ml after 48 hrs by paper disc diffusion method; assay type: functional; settings: MTCC 581, 48 h, read-out: IZ
[31] = system: Curvularia lunata; assay: Antifungal activity against Curvularia lunata MTCC 581 at 40 uM/ml after 48 hrs by paper disc diffusion method; assay type: functional; settings: MTCC 581, 48 h, read-out: IZ
[32] = system: Curvularia lunata; assay: Antifungal activity against Curvularia lunata MTCC 581 at 20 uM/ml after 48 hrs by paper disc diffusion method; assay type: functional; settings: for zone of inhibition at 20 µM: MTCC 581, 48 h, read-out: IZ
[33] = system: Trichoderma viride; assay: Antifungal activity against Trichoderma viride MTCC 1107 at 160 uM/ml after 48 hrs by paper disc diffusion method; assay type: functional; settings: MTCC 1107, 48 h, read-out: IZ
[34] = system: Trichoderma viride; assay: Antifungal activity against Trichoderma viride MTCC 1107 at 80 uM/ml after 48 hrs by paper disc diffusion method; assay type: functional; settings: MTCC 1107, 48 h, read-out: IZ
[35] = system: Trichoderma viride; assay: Antifungal activity against Trichoderma viride MTCC 1107 at 40 uM/ml after 48 hrs by paper disc diffusion method; assay type: functional; settings: MTCC 1107, 48 h, read-out: IZ
[36] = system: Trichoderma viride; assay: Antifungal activity against Trichoderma viride MTCC 1107 at 20 uM/ml after 48 hrs by paper disc diffusion method; assay type: functional; settings: for zone of inhibition at 20 µM: MTCC 1107, 48 h, read-out: IZ
[37] = system: QG-56; assay: Cytotoxicity against human QG56 cells after 48 hrs by MTT assay; assay type: functional, cell-based
[38] = system: HepG2
[39] = system: HCT-116
[40] = Salmonella enterica, ATCC 23564, 24 h, read-out: IZ

SMILES | zone of inhibition at 160 µM [1] [mm] | zone of inhibition at 160 µM [5] [mm] | zone of inhibition at 80 µM [6] [mm] | zone of inhibition at 160 µM [13] [mm] | zone of inhibition at 160 µM [17] [mm] | zone of inhibition at 80 µM [18] [mm] | zone of inhibition at 160 µM [21] [mm] | inhibition zone (IZ) [24] | zone of inhibition at 160 µM [25] [mm] | inhibition zone (IZ) [27] | inhibition zone (IZ) [28] | zone of inhibition at 160 µM [29] [mm] | zone of inhibition at 80 µM [30] [mm] | zone of inhibition at 40 µM [31] [mm] | zone of inhibition at 160 µM [33] [mm] | zone of inhibition at 80 µM [34] [mm] | zone of inhibition [35] [mm] | IC50 [37] [uM/ml] | IC50 [38] [uM/ml] | IC50 [39] [uM/ml] | also measured
COc1cc(/C=C/C(=O)C2=C(/C=C/c3ccc(O)c(OC)c3)NC(=O)NC2c2ccccc2)ccc1O (stereo unspecified) | 17 | 19 | 17 | 11 | 22 | 19 | 9 | inactive | 11 | inactive | inactive | 18 | 12 | 9 | 14 | 11 | 9 | 50 | 50 | 25 | zone of inhibition at 80 µM [2]: 9 mm; inhibition zone (IZ) [3]: inactive; inhibition zone (IZ) [4]: inactive; zone of inhibition at 40 µM [7]: 16 mm; zone of inhibition at 20 µM ([8]; NTCC 10274, 24 h, read-out: IZ): 14 mm; zone of inhibition at 160 µM [9]: 14 mm; zone of inhibition at 80 µM [10]: 12 mm; zone of inhibition at 40 µM ([11]; ATCC 15499, 24 h, read-out: IZ): 9 mm; inhibition zone (IZ) [12]: inactive; zone of inhibition at 80 µM [14]: 8 mm; inhibition zone (IZ) [15]: inactive; inhibition zone (IZ) [16]: inactive; zone of inhibition at 40 µM [19]: 17 mm; zone of inhibition at 20 µM [20]: 14 mm; inhibition zone (IZ) [22]: inactive; inhibition zone (IZ) [23]: inactive; zone of inhibition at 80 µM ([26]; MTCC 1021, 48 h, read-out: IZ): 9 mm; inhibition zone (IZ) [32]: inactive; inhibition zone (IZ) [36]: inactive
COc1cc(/C=C/C(=O)C2=C(/C=C/c3ccc(O)c(OC)c3)NC(=S)NC2c2ccc([N+](=O)[O-])cc2)ccc1O (stereo unspecified) |  | 11 | 9 | 10 | 12 | 10 | 13 | inactive | 11 | inactive | inactive | 21 | 19 | 17 | 22 | 21 | 18 | 50 | 50 | 100 | inhibition zone (IZ) [1]: inactive; inhibition zone (IZ) [7]: inactive; inhibition zone (IZ) [8]: inactive; zone of inhibition at 160 µM [9]: 10 mm; zone of inhibition at 80 µM [10]: 9 mm; inhibition zone (IZ) [11]: inactive; inhibition zone (IZ) [12]: inactive; inhibition zone (IZ) ([14]; Salmonella enterica subsp. enterica serovar Typhimurium): inactive; inhibition zone (IZ) [15]: inactive; inhibition zone (IZ) [16]: inactive; inhibition zone (IZ) [19]: inactive; inhibition zone (IZ) [20]: inactive; zone of inhibition at 80 µM [22]: 11 mm; zone of inhibition at 40 µM ([23]; MTCC 1108, 48 h, read-out: IZ): 9 mm; inhibition zone (IZ) [26]: inactive; zone of inhibition at 20 µM [32]: 14 mm; zone of inhibition at 20 µM [36]: 17 mm
COc1cc(/C=C/C(=O)C2=C(/C=C/c3ccc(O)c(OC)c3)NC(=S)NC2c2ccc(Cl)cc2)ccc1O (stereo unspecified) | 19 | 16 | 12 | 22 | 16 | 13 | 11 | inactive | 9 | inactive | inactive | 15 | 13 | 12 | 24 | 22 | 19 | 100 | 100 | 50 | zone of inhibition at 80 µM [2]: 15 mm; zone of inhibition at 40 µM ([3]; ATCC 35218, 24 h, read-out: IZ): 9 mm; inhibition zone (IZ) [4]: inactive; zone of inhibition at 40 µM [7]: 9 mm; inhibition zone (IZ) [8]: inactive; inhibition zone (IZ) [9]: inactive; zone of inhibition at 80 µM [14]: 19 mm; zone of inhibition at 40 µM [15, 40]: 17 mm; zone of inhibition at 20 µM [16, 40]: 13 mm; zone of inhibition at 40 µM [19]: 11 mm; zone of inhibition at 20 µM [20]: 9 mm; zone of inhibition at 80 µM [22]: 9 mm; inhibition zone (IZ) [23]: inactive; inhibition zone (IZ) [26]: inactive; zone of inhibition at 20 µM [32]: 9 mm; zone of inhibition at 20 µM [36]: 18 mm
